Results taken from patent US4839357A, “Renin inhibitors containing phenylalanyl-histidine replacements” (Merck & Co., Inc., priority 1987, dated 1989).
Square brackets hold non-standard residues; d marks the D form. Peptide text beside a SMILES is read from it. * marks the point of attachment. Sta = CC(C)C[C@H](N)[C@@H](O)CC(=O)O; Isovaleryl = CC(C)CC(=O)*

Columns and labels:
renin = molecular target: T1, renin (Homo sapiens, UniProt P00797); assay: renin inhibition (IC50 printed in the synthesis text, no method described); format: biochemical
T1 sequence (P00797 67-406): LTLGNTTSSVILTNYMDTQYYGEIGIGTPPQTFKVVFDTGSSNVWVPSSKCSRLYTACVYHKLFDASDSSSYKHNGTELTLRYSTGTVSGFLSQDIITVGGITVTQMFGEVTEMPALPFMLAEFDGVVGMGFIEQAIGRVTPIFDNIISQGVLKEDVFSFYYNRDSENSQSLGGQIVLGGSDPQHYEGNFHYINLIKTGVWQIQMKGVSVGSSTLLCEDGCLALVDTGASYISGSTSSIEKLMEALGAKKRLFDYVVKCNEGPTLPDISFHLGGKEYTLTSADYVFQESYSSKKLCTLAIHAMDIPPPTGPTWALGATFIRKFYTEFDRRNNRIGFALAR

hog renin = conditions: after the injection of hog renin into nephrectomized rats; cited from earlier work

SMILES | IC50 (renin) | blood pressure in vivo (hog renin)
CC(C)S(=O)(=O)C[C@@H](CCc1ccccc1)C(=O)N[C@@H](Cc1c[nH]cn1)C(=O)N[C@@H](CC1CCCCC1)[C@@H](O)CC(=O)NC1CN2CCC1CC2 (stereo partly drawn) [3-benzyl-2-(S)-(isopropylsulfonylmethyl)propionyl-L-histidyl-(3S,4S)-4-amino-5-cyclohexyl 3-hydroxypentanoyl 3-quinuclidinyl amide] | 11 nM | –
CC(C)CC(=O)N[C@H](C(=O)N[C@H](C(=O)N[C@@H](CC(C)C)[C@@H](O)CC(=O)N[C@@H](C)C(=O)N[C@@H](CC(C)C)[C@@H](O)CC(=O)O)C(C)C)C(C)C [pepstatin] (Isovaleryl-VV[Sta]A[Sta]-OH) | – | reduces blood pressure
